Test results: patent EP1862549A2, “Target of RNAIII activating protein (TRAP)” (Balaban, Naomi, priority 1998, dated 2007)

Key:
TRAP = details: wild type early exponential S. aureus cells incubated in PFB with 32P; PBS as control
Protocol: Wild type early exponential S. aureus cells were incubated for 1 hr in phosphate free buffer (PFB) together with ^32P, with RAP (in PBS) or with PBS only as a control. […] Cells were collected, applied to SDS PAGE, and the gel autoradiographed. The autoradiogram was scanned and the density of the bands determined.
Wild type early exponential S. aureus cells were incubated in PFB with ^32P with either PBS alone, RIP, RAP, or a combination of RIP and RAP. […] The cells were collected, applied to SDS PAGE, the gel autoradiographed, and the relative amounts of TRAP phosphorylation and RNAIII transcription levels determined (Balaban et al. Proc. Natl. Acad. Sci. U.S.A. 92:1619-1623 (1995)). […] The relative levels of TRAP phosphorylation (Fig. 14) and RNAIII transcription (Fig. 15) in the presence of PBS alone (control), RIP, RAP, or RIP and RAP were also determined.

S. aureus = details: animals treated with RIP; cited from earlier work

YSPXTNF (SEQ ID NO:3) [RIP]
TRAP phosphorylation (TRAP): inhibited | protection from an S. aureus infection (S. aureus): protected
